Measured values taken from US20110130380A1, “Heteroaryl Kinase Inhibitors” (priority 2009, published 2011).

Legend:
Cdk9/cyclinT1 = Cdk9/cyclinT1 (Homo sapiens, UniProt P50750); assay: Cdk9/cyclinT1 IMAP Protocol (fluorescence polarization kinase assay); conditions: Cdk9_cyclinT1_IC50, Table V; generated using one of the two Cdk9/cyclinT1 assays (IMAP or Alpha Screen), not stated which; ATP 6 uM
neointima formation = conditions: rats; cited from earlier work

Cdk9/cyclinT1, sequence (P50750 whole entry): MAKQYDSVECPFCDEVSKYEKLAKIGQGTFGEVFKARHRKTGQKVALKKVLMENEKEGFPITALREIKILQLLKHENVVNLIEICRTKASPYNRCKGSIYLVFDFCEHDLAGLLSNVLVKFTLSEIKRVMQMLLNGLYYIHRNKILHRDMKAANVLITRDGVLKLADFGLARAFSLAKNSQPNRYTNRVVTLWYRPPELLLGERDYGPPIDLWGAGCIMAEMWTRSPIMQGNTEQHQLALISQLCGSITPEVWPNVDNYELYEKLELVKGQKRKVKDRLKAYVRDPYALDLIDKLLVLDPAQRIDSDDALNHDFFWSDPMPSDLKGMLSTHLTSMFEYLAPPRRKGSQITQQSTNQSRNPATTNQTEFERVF
Cdk9/cyclinT1, sequence (O60563 whole entry partner): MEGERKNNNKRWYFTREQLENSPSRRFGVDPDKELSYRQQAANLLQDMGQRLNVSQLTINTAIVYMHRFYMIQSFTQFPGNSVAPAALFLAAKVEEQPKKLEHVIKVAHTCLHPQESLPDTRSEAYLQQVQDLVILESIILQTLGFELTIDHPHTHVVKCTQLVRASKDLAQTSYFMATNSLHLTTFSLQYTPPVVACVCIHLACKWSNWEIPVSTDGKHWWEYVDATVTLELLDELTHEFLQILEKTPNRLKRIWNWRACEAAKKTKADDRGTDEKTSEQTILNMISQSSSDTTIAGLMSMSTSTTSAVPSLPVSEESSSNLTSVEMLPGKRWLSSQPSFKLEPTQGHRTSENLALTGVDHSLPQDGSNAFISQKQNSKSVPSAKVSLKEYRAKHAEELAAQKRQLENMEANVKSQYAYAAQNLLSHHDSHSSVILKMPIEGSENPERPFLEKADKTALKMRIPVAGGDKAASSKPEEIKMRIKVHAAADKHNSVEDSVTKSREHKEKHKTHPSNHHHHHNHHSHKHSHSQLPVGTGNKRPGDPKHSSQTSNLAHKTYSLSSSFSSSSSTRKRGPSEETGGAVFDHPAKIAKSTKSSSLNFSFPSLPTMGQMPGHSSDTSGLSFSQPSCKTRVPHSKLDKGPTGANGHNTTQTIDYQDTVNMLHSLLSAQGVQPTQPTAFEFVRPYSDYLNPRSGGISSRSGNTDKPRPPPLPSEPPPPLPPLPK

| IC50 (Cdk9/cyclinT1) [nM] | SMILES | inhibition of neointima formation (neointima formation) |
| --- | --- | --- |
| 181 | O=C(Nc1cc(-c2cccc(N3CCCC3)n2)c(Cl)cn1)[C@@H]1CCCNC1 [Example 44, (R)-Piperidine-3-carboxylic acid (5′-chloro-6-pyrrolidin-1-yl-[2,4′]bipyridinyl-2′-yl)-amide] | – |
| – | COc1ccc(CNc2nc(N(CCO)CCO)nc3c2ncn3C(C)C)cc1 [CVT-313] | greater than 80% |
| < 8 | CC1(C)CC(CNc2cccc(-c3cc(NC(=O)[C@@H]4CCCNC4)ncc3Cl)n2)CCO1 (stereo partly drawn) [Example 94, (R)-Piperidine-3-carboxylic acid {5′-chloro-6-[(2,2-dimethyl-tetrahydro-pyran-4-ylmethyl)-amino]-[2,4′]bipyridinyl-2′-yl}-amide] | – |
